Measured values taken from patent US20130023553A1, “PEGYLATED OPIOIDS WITH LOW POTENTIAL FOR ABUSE AND SIDE EFFECTS” (Nektar Therapeutics, priority 2010, published 2013).
Where two headings read alike, the source gives them in different places.

Experiments:
human mu opioid receptor [1] = target: T1, human mu opioid receptor (Homo sapiens, UniProt P35372); experiment: biochemical; assay type: binding
T1 construct: expressed in transfected cells; host or cells: CHO cells
Procedure: Radioligand displacement was measured using scintillation proximity assays (SPA).
Briefly, serial dilutions of the test compounds were placed in a 96-well plate to which were added SPA beads, membrane and radioligand. The assay conditions for each opioid receptor subtype are described in Table 10 below. The plates were incubated for 8 hours-overnight at room temperature, spun at 1000 rpm to pellet the SPA beads, and radioactivity was measured using the TopCount® microplate Scintillation counter. Specific binding at each concentration of test compound was calculated by subtracting the non-specific binding measured in the presence of excess cold ligand. IC50 values were obtained by non-linear regression of specific binding versus concentration curves and Ki values were calculated using Kd values that were experimentally pre-determined for each lot of membrane preparations.

human mu opioid receptor [2] = target: T1, human mu opioid receptor; experiment: cell-based; details: for Emax: read-out: % max effect, mu opioid receptor
Procedure: Studies were conducted in CHO cells heterologously expressing the cloned human mu, kappa or delta opioid receptors. cAMP was measured using a cAMP HiRange homogenous time-resolved fluorescence assay (HTRF Assay), that is based on a competitive immunoassay principle (Cisbio, Cat.#62AM6PEC).
Briefly, suspensions of cells expressing either the mu, kappa or delta opioid receptors were prepared in buffer containing 0.5 mM isobutyl-methyl xanthine (IBMX). […] EC50 values were calculated for each compound from a sigmoidal dose-response plot of concentrations versus maximum response. To determine if the compounds behaved as full or partial agonists in the system, the maximal response at the highest tested concentrations of compounds were compared to that produced by a known full agonist.

[3] = Pharmacokinetics following intravenous (IV) dosing; assay type: in vivo, Sprague-Dawley rats; details: for AUC / AUC(0-inf) / MRT last / clearance / Cmax / half-life / Vd: male, Sprague-Dawley, rat, plasma; for Cmax: read-out: Cmax; for Vd: read-out: Vss
Excerpt: (§1) There were 3 rats/group. All animals were food fasted overnight. […] The predose sample was collected from the JVC.
(§2) Following the last collection point, the animals were euthanized.

[4] = Pharmacokinetics following oral (PO) dosing; assay type: in vivo, Sprague-Dawley rats; details: male, Sprague-Dawley, rat, plasma, po, 5 mg/kg; for Cmax: read-out: Cmax; for half-life: read-out: T1/2(2); for Tmax: read-out: Tmax (converted)
Excerpt: as §1, §2

squirrel monkeys = experiment: Monkey self-administration model of addictive potential
Excerpt: Dose-related effects of the test articles were examined, using two or more doses of each drug in 3-4 subjects in a double alternation schedule in which each unit dose (or vehicle) was used in two consecutive sessions before a change in unit dose.
Addictive potential of opioid compounds and opioid conjugates of the invention may be assessed through the use of squirrel monkey models as known in the art.
Under the double alternation schedule, each unit dose (or vehicle) was available for intravenous self-administration for two consecutive sessions before the unit dose was changed. In this way, it was possible to establish the function relating unit dose of intravenous drug to (i) number of injections per session, and/or (ii) the percentage of total responses that occur on the lever leading to self-administration (injection-lever responding, % ILR). Unit doses of drugs ranged from 0.01 to 3.2 mg/kg/injection.

[5] = CHO-K1 membranes, [3H]DAMGO 6 nM, read-out: Ki, Mu opioid receptor
[6] = maximal response at the highest tested concentration
[7] = read-out: EC50, mu opioid receptor
[8] = hydroxycodone series, 1 mg/kg IV, Mean ± SD

T1 sequence (P35372 whole entry): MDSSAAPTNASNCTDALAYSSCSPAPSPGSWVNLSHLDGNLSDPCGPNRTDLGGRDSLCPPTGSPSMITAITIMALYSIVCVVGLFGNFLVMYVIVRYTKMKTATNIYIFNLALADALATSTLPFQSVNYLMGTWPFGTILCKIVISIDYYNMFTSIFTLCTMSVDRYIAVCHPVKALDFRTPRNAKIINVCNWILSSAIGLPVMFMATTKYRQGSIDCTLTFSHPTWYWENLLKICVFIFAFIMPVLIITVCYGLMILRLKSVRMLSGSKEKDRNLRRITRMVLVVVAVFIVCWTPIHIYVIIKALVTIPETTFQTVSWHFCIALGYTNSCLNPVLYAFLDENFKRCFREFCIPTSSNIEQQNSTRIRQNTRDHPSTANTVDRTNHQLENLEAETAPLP

SMILES: COCCOCCOC1C=CC2C3Cc4ccc(O)c5c4C2(CCN3C)C1O5 (stereo not drawn) [α-6-mPEG2-O-morphine]
- Ki (human mu opioid receptor [1]): 22 nM
- EC50 (human mu opioid receptor [2]): 93.3 nM
- Emax (human mu opioid receptor [2]): 91%

SMILES: COCCOCCOCCOCCOCCOCCOCCOCCOCCOC1C=CC2C3Cc4ccc(O)c5c4C2(CCN3C)C1O5 (stereo not drawn) [α-6-mPEG9-O-Morphine, α-6-mPEG-O9-morphine]
- Ki (human mu opioid receptor [1]; [5]): 111 nM
- Emax (human mu opioid receptor [2]; [6]): 87%
- EC50 (human mu opioid receptor [2]; [7]): 1060 nM

SMILES: COCCOCCOCCOC1C=CC2C3Cc4ccc(OC)c5c4C2(CCN3C)C1O5 (stereo not drawn) [α-6-mPEG3-O-codeine]
- AUC ([3]; iv, 1 mg/kg): 288 ng·h/mL
- AUC(0-inf) ([3]; iv, 1 mg/kg): 290 ng·h/mL
- MRT last ([3]; iv, 1 mg/kg): 0.563 h
- clearance ([3]; iv, 1 mg/kg): 57.7 ± 4.89 mL/min/kg
- Cmax ([3]; iv, 1 mg/kg): 732 ± 27.1 ng/mL
- half-life ([3]; iv, 1 mg/kg, read-out: T1/2(2)): 0.657 ± 0.0248 h
- Vd ([3]; iv, 1 mg/kg): 2.07 ± 0.127 L/kg
- AUC [4]: 32 ng·h/mL
- AUC(0-inf) [4]: 34.7 ng·h/mL
- MRT last [4]: 1.18 h
- bioavailability [4]: 2.39%
- Cmax [4]: 25 ± 6.59 ng/mL
- half-life [4]: 2.08 ± 1.08 h
- Tmax [4]: 0.25 h
- Ki (human mu opioid receptor [1]; [5]): 4260 nM
- Emax (human mu opioid receptor [2]; [6]): 91%

SMILES: COCCOCCOCCOCCOCCOC1C=CC2C3Cc4ccc(O)c5c4C2(CCN3C)C1O5 (stereo not drawn) [α-6-mPEG5-O-morphine]
- Ki (human mu opioid receptor [1]): 39.4 nM
- EC50 (human mu opioid receptor [2]): 157 nM
- Emax (human mu opioid receptor [2]): 95%

SMILES: COCCOCCOCCOCCOCCOCCOCCOC1C=CC2C3Cc4ccc(OC)c5c4C2(CCN3C)C1O5 (stereo not drawn) [α-6-mPEG7-O-codeine]
- AUC ([3]; iv, 1 mg/kg): 212 ng·h/mL
- AUC(0-inf) ([3]; iv, 1 mg/kg): 228 ng·h/mL
- MRT last ([3]; iv, 1 mg/kg): 0.845 h
- clearance ([3]; iv, 1 mg/kg): 73.1 ± 1.73 mL/min/kg
- Cmax ([3]; iv, 1 mg/kg): 443 ± 43.3 ng/mL
- half-life ([3]; iv, 1 mg/kg, read-out: T1/2(2)): 1.24 ± 0.096 h
- Vd ([3]; iv, 1 mg/kg): 5.2 ± 0.596 L/kg
- AUC [4]: 285 ng·h/mL
- AUC(0-inf) [4]: 267 ng·h/mL
- MRT last [4]: 2.85 h
- bioavailability [4]: 26.9%
- Cmax [4]: 76.6 ± 12.8 ng/mL
- half-life [4]: 1.63 h
- Tmax [4]: 2 h
- Ki (human mu opioid receptor [1]; [5]): 9960 nM
- Emax (human mu opioid receptor [2]; [6]): 75%
- EC50 (human mu opioid receptor [2]; [7]): 44700 nM

SMILES: COCCOCCOCCOCCOCCOCCOCCOC1C=CC2C3Cc4ccc(O)c5c4C2(CCN3C)C1O5 (stereo not drawn) [α-6-mPEG7-O-morphine]
- Ki (human mu opioid receptor [1]): 56.9 nM
- EC50 (human mu opioid receptor [2]): 508 nM
- Emax (human mu opioid receptor [2]): 90%

SMILES: COCCOCCOCCOCCOC1C=CC2C3Cc4ccc(O)c5c4C2(CCN3C)C1O5 (stereo not drawn) [α-6-mPEG4-O-morphine]
- Ki (human mu opioid receptor [1]): 23.1 nM
- EC50 (human mu opioid receptor [2]): 128 nM
- Emax (human mu opioid receptor [2]): 100%

SMILES: COCCOCCOCCOC1C=CC2C3Cc4ccc(O)c5c4C2(CCN3C)C1O5 (stereo not drawn) [α-6-mPEG3-O-morphine]
- subjects showing addictive behavior (squirrel monkeys; 0.1 mg/kg/injection): 33%
- subjects showing addictive behavior (squirrel monkeys; 0.3 mg/kg/injection): all animals
- Ki (human mu opioid receptor [1]): 50.7 nM
- EC50 (human mu opioid receptor [2]): 270 nM
- Emax (human mu opioid receptor [2]): 100%

SMILES: COCCOCCOCCOCCOCCOCCOCCOCCOCCOC1CCC2(O)C3Cc4ccc(OC)c5c4C2(CCN3C)C1O5 (stereo not drawn) [α-6-mPEG9-O-hydroxycodone, α-6-mPEG9-O-oxycodone]
- mean t1/2 value, times that of the parent compound ([3]; 1 mg/kg IV): 3 times
- AUC [3, 8]: 277 ng·h/mL
- AUC(0-inf) [3, 8]: 350 ng·h/mL
- MRT last [3, 8]: 0.878 h
- clearance [3, 8]: 48.9 ± 9.41 mL/min/kg
- Cmax [3, 8]: 955 ± 149 ng/mL
- half-life ([3]; hydroxycodone series, 1 mg/kg IV, Mean ± SD, read-out: T1/2(z)): 2.38 ± 0.238 h
- Vd [3, 8]: 6.35 ± 0.349 L/kg
- Emax (human mu opioid receptor [2]; [6]): 95%
